Measured values as given in US9549555B2, “Macrocyclic picolinamide compounds with fungicidal activity” (DOW AGROSCIENCES LLC, priority 2013, dated 2017).
Where two headings read alike, the source gives them in different places.

Assays:
Assay type in all cases: in vivo
[1] = test system: Rhyncosporium secalis; test: Barley scald (RHYNSE), percent disease control; conditions: 24 h, 1 Day Protectant, read-out: Disease control RHYNSE 1DP
Description: Technical grades of materials were dissolved in acetone, which were then mixed with nine volumes of water containing 110 ppm Triton X-100. The fungicide solutions were applied onto wheat seedlings using an automated booth sprayer to run-off. All sprayed plants were allowed to air dry prior to further handling. All fungicides were evaluated using the aforementioned method for their activity vs. all target diseases. Wheat leaf blotch and brown rust activity were also evaluated using track spray applications, in which case the fungicides were formulated as EC formulations, containing 0.1% Trycol 5941 in the spray solutions. Wheat plants (variety Yuma) were grown from seed in a greenhouse in 50% mineral soil/50% soil-less Metro mix until the first leaf was fully emerged, with 7-10 seedlings per pot. These plants were inoculated with an aqueous spore suspension of Septoria tritici either prior to or after fungicide treatments. After inoculation the plants were kept in 100% relative humidity (one day in a dark dew chamber followed by two to three days in a lighted dew chamber at 20° C.) to permit spores to germinate and infect the leaf. The plants were then transferred to a greenhouse set at 20° C. for disease to develop. When disease symptoms were fully expressed on the 1st leaves of untreated plants, infection levels were assessed on a scale of 0 to 100 percent disease severity. Percent disease control was calculated using the ratio of disease severity on treated plants relative to untreated plants. Evaluation of Fungicidal Activity: Barley Scald (Rhyncosporium secalis; Bayer Code […]) Barley seedlings (variety Harrington) were propagated in soil-less Metro mix, with each pot having 8 to 12 plants, and used in the test when first leaf was fully emerged. Test plants were inoculated by an aqueous spore suspension of Rhyncosporium secalis 24 hr after fungicide treatments. After inoculation the plants were kept in a dew room at 20° C. with 100% relative humidity for 48 hr. The plants were then transferred to a greenhouse set at 20° C. for disease to develop. Fungicide formulation, application and disease assessment on the sprayed leaves followed the procedures as described in the Example A.

[2] = test system: Mycosphaerella graminicola; Anamorph: Septoria tritici; test: Leaf blotch of wheat (SEPTTR), percent disease control on wheat seedlings; conditions: Zymoseptoria tritici, rate 100 ppm
Description: Evaluation of Fungicidal Activity: Leaf Blotch of Wheat (Mycosphaerella graminicola; Anamorph: Septoria tritici; Bayer Code […]) Technical grades of materials were dissolved in acetone, which were then mixed with nine volumes of water containing 110 ppm Triton X-100. The fungicide solutions were applied onto wheat seedlings using an automated booth sprayer to run-off. All sprayed plants were allowed to air dry prior to further handling. All fungicides were evaluated using the aforementioned method for their activity vs. all target diseases. Wheat leaf blotch and brown rust activity were also evaluated using track spray applications, in which case the fungicides were formulated as EC formulations, containing 0.1% Trycol 5941 in the spray solutions. Wheat plants (variety Yuma) were grown from seed in a greenhouse in 50% mineral soil/50% soil-less Metro mix until the first leaf was fully emerged, with 7-10 seedlings per pot. These plants were inoculated with an aqueous spore suspension of Septoria tritici either prior to or after fungicide treatments. […] When disease symptoms were fully expressed on the 1st leaves of untreated plants, infection levels were assessed on a scale of 0 to 100 percent disease severity. Percent disease control was calculated using the ratio of disease severity on treated plants relative to untreated plants.

[3] = test system: Puccinia triticina; test: Wheat brown rust (PUCCRT), percent disease control on wheat seedlings; conditions: rate 100 ppm

| Compound | pest or weed control at 100 ppm [1] | other results |
| --- | --- | --- |
| COc1ccnc(C(=O)N[C@H]2CCC[C@H](Oc3ccccc3)[C@@H](CCC(C)C)[C@H](C)OC2=O)c1OCOC(C)=O [Compound 40] | > 70% |  |
| COc1ccnc(C(=O)N[C@H]2CCC[C@H](OCC(C)C)[C@@H](Cc3ccccc3)[C@H](C)OC2=O)c1O [Compound 62] |  | pest or weed control at 100 ppm ([2]; 24 h, 1 Day Protectant, read-out: Disease control SEPTTR 1DP): > 70%; pest or weed control at 100 ppm ([2]; 72 h, 3 Day Curative, read-out: Disease control SEPTTR 3DC): < 70%; pest or weed control at 100 ppm ([3]; 24 h, 1 Day Protectant, read-out: Disease control PUCCRT 1DP): > 70%; pest or weed control at 100 ppm ([3]; 72 h, 3 Day Curative, read-out: Disease control PUCCRT 3DC): > 70% |
| COc1ccnc(C(=O)N[C@H]2CCC[C@H](OCC3CC3)[C@@H](Cc3ccc(F)cc3)[C@H](C)OC2=O)c1OCOC(C)=O [Compound 61] | > 70% |  |
| CCCC[C@H]1[C@H](C)OC(=O)[C@@H](NC(=O)c2nccc(OC)c2OCOC(C)=O)CCC[C@@H]1Oc1ccccc1 [Compound 33] | > 70% |  |
| CCCC[C@H]1[C@H](C)OC(=O)[C@@H](NC(=O)c2nccc(OC)c2OCOC(C)=O)CCC[C@@H]1OCC1CC1 [Compound 73] | > 70% |  |
| COc1ccnc(C(=O)N[C@H]2CCC[C@H](Oc3ccccc3)[C@@H](CCC(C)C)[C@H](C)OC2=O)c1OC(C)=O [Compound 36] | > 70% |  |
| CCCO[C@H]1CCC[C@H](NC(=O)c2nccc(OC)c2OCOC(C)=O)C(=O)O[C@@H](C)[C@@H]1CCC(C)C [Compound 25, ((2-(((3S,7S,8S,9S)-8-isopentyl-9-methyl-2-oxo-7-propoxyoxonan-3-yl)carbamoyl)-4-methoxypyridin-3-yl)oxy)methyl acetate] | > 70% |  |
| CCCO[C@H]1CCC[C@H](NC(=O)c2nccc(OC)c2OC(C)=O)C(=O)O[C@@H](C)[C@@H]1Cc1ccccc1 [Compound 70] | > 70% |  |
| CCCO[C@H]1CCC[C@H](NC(=O)c2nccc(OC)c2OC(C)=O)C(=O)O[C@@H](C)[C@@H]1CCC(C)C [Compound 74, 2-((3S,7S,8S,9S)-8-isopentyl-9-methyl-2-oxo-7-propoxyoxonan-3-yl)carbamoyl)-4-methoxypyridin-3-yl acetate] | > 70% |  |
